Among the data in patent publication US20260356856A1, “KRAS G12S AND G12C INHIBITORS” (MIRATI THERAPEUTICS, INC., priority 2023, published 2026) are IC50 values, retold here.

The target of one experiment is T1, KRas G12S (Homo sapiens, UniProt P01116, G12S).
T1 construct: Biotinylated KRas (corresponding to amino acids 1-169, produced at Accelegan Inc.); biotin (biotinylated); purchased Accelegan Inc
Description: KRas binding assay, TR-FRET displacement of Cy5 labelled tracer. Particulars: 60-minute incubation at room temperature, 1% DMSO, pH 7.5. In short, it runs like this: (§1)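 Room-temperature incubation (60 min) of compound with biotinylated KRas 1-169, tracer and Tb-streptavidin preceded the TR-FRET read. Final DMSO was 1%; buffer pH 7.5. Percent-of-control values went into a 4-parameter equation to give IC50.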
In general terms: Time-resolved FRET reads energy transfer from a long-lived donor to a nearby acceptor.

The target in the next experiment is T2, KRas G12C (Homo sapiens, UniProt P01116, G12C).
T2 construct: Biotinylated KRas (corresponding to amino acids 1-169, produced at Accelegan Inc.); biotin (biotinylated); purchased Accelegan Inc
The experiment is described as above. The conditions noted are these: 60-minute incubation at room temperature, 1% DMSO, pH 7.5. In short, it runs like this:
as §1

A further experiment has as its target T3, KRas WT (Homo sapiens, UniProt P01116).
T3 construct: Biotinylated KRas (corresponding to amino acids 1-169, produced at Accelegan Inc.); biotin (biotinylated); purchased Accelegan Inc
The description is as above. The conditions noted are these: 60-minute incubation at room temperature, 1% DMSO, pH 7.5. In short, it runs like this: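 Final conditions: 1% DMSO, pH 7.5 HEPES buffer, 60 min, room temperature. Protein: biotin-KRas 1-169 with terbium streptavidin. Output: IC50, four-parameter fit of POC.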

Experiment [1] addresses T4, KRas-mediated phosphorylation of ERK in A549 cells (Homo sapiens, UniProt P01116, G12S).
T4 construct: pERK HTRF read-out
The experiment in a line: Inhibition of KRas-mediated phosphorylation of ERK (HTRF), A549 cells. It counts as cell-based. Particulars: HTRF pERK, 3 h incubation.

Experiment [2] addresses T5, KRas-mediated phosphorylation of ERK in MKN1 cells (Homo sapiens, UniProt P01116).
T5 construct: pERK HTRF read-out
The experiment in a line: Inhibition of KRas-mediated phosphorylation of ERK (HTRF), MKN1 cells. It counts as cell-based. Particulars: MKN1 cells (KRas WT); HTRF pERK; 3 h incubation. The method, then:
Inhibition of KRas Phosphorylation of ERK (HTRF) by Exemplary Compounds of Formula (Ia) or (Ib)
Cisbio HTRF Advanced pERK Assay Catalog #64AERPEH • Cells: MKN1, PSN1 • Procedure: • 1. Day 1: Seed 6,000 cells/well −25 μl/well in 384-well white solid bottom plate; RPM1_10% FBS. Incubate overnight at 37 °C/5% CO2. • 2.

The structures appear in SMILES notation.

T2 sequence (P01116 1-169 isoform P01116-2 G12C): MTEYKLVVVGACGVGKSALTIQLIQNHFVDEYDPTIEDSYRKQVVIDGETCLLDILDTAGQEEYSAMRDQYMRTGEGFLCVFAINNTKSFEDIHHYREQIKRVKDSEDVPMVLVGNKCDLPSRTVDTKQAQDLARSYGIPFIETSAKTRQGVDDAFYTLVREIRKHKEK
T4 sequence (P01116 1-188 isoform P01116-2 G12S): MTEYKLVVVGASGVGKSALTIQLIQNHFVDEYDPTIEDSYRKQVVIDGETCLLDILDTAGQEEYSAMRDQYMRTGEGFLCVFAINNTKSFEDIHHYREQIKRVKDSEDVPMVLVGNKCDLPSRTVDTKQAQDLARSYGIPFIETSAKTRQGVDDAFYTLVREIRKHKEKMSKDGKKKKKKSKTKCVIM
T1 sequence (P01116 1-169 isoform P01116-2 G12S): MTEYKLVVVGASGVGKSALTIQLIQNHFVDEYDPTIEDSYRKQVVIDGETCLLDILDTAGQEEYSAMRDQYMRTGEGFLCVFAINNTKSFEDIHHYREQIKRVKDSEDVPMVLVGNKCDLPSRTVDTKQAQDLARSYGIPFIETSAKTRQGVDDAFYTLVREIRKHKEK
T5 sequence (P01116 1-188 isoform P01116-2): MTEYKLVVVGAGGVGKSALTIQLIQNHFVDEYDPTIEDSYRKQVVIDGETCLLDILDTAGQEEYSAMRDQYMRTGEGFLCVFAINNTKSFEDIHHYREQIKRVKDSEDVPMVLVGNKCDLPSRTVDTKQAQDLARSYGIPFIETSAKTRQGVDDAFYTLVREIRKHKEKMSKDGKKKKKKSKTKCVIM
T3 sequence (P01116 1-169 isoform P01116-2): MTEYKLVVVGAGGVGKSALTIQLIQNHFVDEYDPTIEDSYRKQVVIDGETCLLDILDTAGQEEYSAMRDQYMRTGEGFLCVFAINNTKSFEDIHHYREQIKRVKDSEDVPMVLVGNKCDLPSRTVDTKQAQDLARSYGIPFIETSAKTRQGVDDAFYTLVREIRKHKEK

As a reminder, the IC50 is the midpoint of a concentration-inhibition curve. Read a high IC50 as weaker potency in that assay. `CCc1c(F)ccc2cc(O)cc(-c3ncc4c(N5CC6CC5CC6C(=O)n5ccc(C)n5)nc(OC[C@@]56CCCN5C[C@H](F)C6)nc4c3F)c12` (stereo partly drawn) [Example 90, (2-(7-(8-ethyl-7-fluoro-3-hydroxynaphthalen-1-yl)-8-fluoro-2-(((2R,7aS)-2-fluorotetrahydro-1H-pyrrolizin-7a(5H)-yl)methoxy)pyrido[4,3-d]pyrimidin-4-yl)-2-azabicyclo[2.2.1]heptan-5-yl)(3-methyl-1H-pyrazol-1-yl)methanone]: the IC50 on KRas G12S is 286 nM; on KRas G12C it was 260 nM; on KRas WT, 233 nM; in experiment [1], more than 10000 nM; in experiment [2] it was 9190 nM.
Taken in the same sequence, the figures for `CCc1c(F)ccc2cc(O)cc(-c3ncc4c(N5CCC6CC6(C(=O)n6ccc(C)n6)CC5)nc(OC[C@@]56CCCN5C[C@H](F)C6)nc4c3F)c12` (stereo partly drawn) [Example 91, (4-(7-(8-ethyl-7-fluoro-3-hydroxynaphthalen-1-yl)-8-fluoro-2-(((2R,7aS)-2-fluorotetrahydro-1H-pyrrolizin-7a(5H)-yl)methoxy)pyrido[4,3-d]pyrimidin-4-yl)-4-azabicyclo[5.1.0]octan-1-yl)(3-methyl-1H-pyrazol-1-yl)methanone] were 62 nM, 141 nM, 317 nM, 210 nM and 853 nM.
Taken in the same sequence, the figures for `CCc1c(F)ccc2cc(O)cc(-c3ncc4c(NCC56CC(C(=O)n7ccc(C)n7)(C5)C6)nc(OC[C@@]56CCCN5C[C@H](F)C6)nc4c3F)c12` [Example 92, (3-(((7-(8-ethyl-7-fluoro-3-hydroxynaphthalen-1-yl)-8-fluoro-2-(((2R,7aS)-2-fluorotetrahydro-1H-pyrrolizin-7a(5H)-yl)methoxy)pyrido[4,3-d]pyrimidin-4-yl)amino)methyl)bicyclo[1.1.1]pentan-1-yl)(3-methyl-1H-pyrazol-1-yl)methanone] were 17 nM, 3 nM, 59 nM, 1380 nM and more than 10000 nM.
In the same order, the values of `CCc1c(F)ccc2cc(O)cc(-c3ncc4c(NCC5CC(C(=O)n6ccc(C)n6)C5)nc(OC[C@@]56CCCN5C[C@H](F)C6)nc4c3F)c12` (stereo partly drawn) [Example 93, (3-(((7-(8-ethyl-7-fluoro-3-hydroxynaphthalen-1-yl)-8-fluoro-2-(((2R,7aS)-2-fluorotetrahydro-1H-pyrrolizin-7a(5H)-yl)methoxy)pyrido[4,3-d]pyrimidin-4-yl)amino)methyl)cyclobutyl)(3-methyl-1H-pyrazol-1-yl)methanone] are 3 nM, 4 nM, 13 nM, 26 nM and 325 nM.
Take `CCc1c(F)ccc2cc(O)cc(-c3ncc4c(N5CCC(C)(C(=O)n6ccc(C)n6)C5)nc(OC[C@@]56CCCN5C[C@H](F)C6)nc4c3F)c12` (stereo partly drawn) [Example 94, (1-(7-(8-ethyl-7-fluoro-3-hydroxynaphthalen-1-yl)-8-fluoro-2-(((2R,7aS)-2-fluorotetrahydro-1H-pyrrolizin-7a(5H)-yl)methoxy)pyrido[4,3-d]pyrimidin-4-yl)-3-methylpyrrolidin-3-yl)(3-methyl-1H-pyrazol-1-yl)methanone]: the IC50 at KRas G12S worked out at 232 nM; at KRas G12C, 15 nM; at KRas WT, 306 nM; in experiment [1], 1070 nM; in experiment [2], 6200 nM.
In the same order, the values of `CCc1c(F)ccc2cc(O)cc(-c3ncc4c(N5CCC(COC)(C(=O)n6ccc(C)n6)C5)nc(OC[C@@]56CCCN5C[C@H](F)C6)nc4c3F)c12` (stereo partly drawn) [Example 95, (1-(7-(8-ethyl-7-fluoro-3-hydroxynaphthalen-1-yl)-8-fluoro-2-(((2R,7aS)-2-fluorotetrahydro-1H-pyrrolizin-7a(5H)-yl)methoxy)pyrido[4,3-d]pyrimidin-4-yl)-3-(methoxymethyl)pyrrolidin-3-yl)(3-methyl-1H-pyrazol-1-yl)methanone] are 1600 nM, 257 nM, 1080 nM, 4220 nM and more than 10000 nM.
On to `CCc1c(F)ccc2cc(O)cc(-c3ncc4c(N5C[C@H](C(=O)n6ccc(C)n6)[C@@H](C)C5)nc(OC[C@@]56CCCN5C[C@H](F)C6)nc4c3F)c12` [Example 96, ((3R,4R)-1-(7-(8-ethyl-7-fluoro-3-hydroxynaphthalen-1-yl)-8-fluoro-2-(((2R,7aS)-2-fluorotetrahydro-1H-pyrrolizin-7a(5H)-yl)methoxy)pyrido[4,3-d]pyrimidin-4-yl)-4-methylpyrrolidin-3-yl)(3-methyl-1H-pyrazol-1-yl)methanone], for which the IC50 at KRas G12S was 339 nM; on KRas G12C it was 375 nM; on KRas WT, 162 nM; in experiment [1] it was more than 10000 nM; in experiment [2], more than 10000 nM.
Regarding `CCc1c(F)ccc2cc(O)cc(-c3ncc4c(N5CCC(C(=O)n6ccc(C)n6)C6CC65)nc(OC[C@@]56CCCN5C[C@H](F)C6)nc4c3F)c12` (stereo partly drawn) [Example 97, (2-(7-(8-ethyl-7-fluoro-3-hydroxynaphthalen-1-yl)-8-fluoro-2-(((2R,7aS)-2-fluorotetrahydro-1H-pyrrolizin-7a(5H)-yl)methoxy)pyrido[4,3-d]pyrimidin-4-yl)-2-azabicyclo[4.1.0]heptan-5-yl)(3-methyl-1H-pyrazol-1-yl)methanone], the IC50 amounted to 201 nM at KRas G12S; 395 nM on KRas G12C; 125 nM at KRas WT; 2120 nM in experiment [1]; 2850 nM in experiment [2].
In the same order, the values of `CCc1c(F)ccc2cc(O)cc(-c3ncc4c(N5CC6CC(C(=O)n7ccc(C)n7)C6C5)nc(OC[C@@]56CCCN5C[C@H](F)C6)nc4c3F)c12` (stereo partly drawn) [Example 98, (3-(7-(8-ethyl-7-fluoro-3-hydroxynaphthalen-1-yl)-8-fluoro-2-(((2R,7aS)-2-fluorotetrahydro-1H-pyrrolizin-7a(5H)-yl)methoxy)pyrido[4,3-d]pyrimidin-4-yl)-3-azabicyclo[3.2.0]heptan-6-yl)(3-methyl-1H-pyrazol-1-yl)methanone] are 20 nM, 73 nM, 178 nM, 61 nM and 2490 nM.
Consider `CCc1c(F)ccc2cc(O)cc(-c3ncc4c(N5C[C@H]6C[C@@H](C5)[C@H](C(=O)n5ccc(C)n5)C6)nc(OC[C@@]56CCCN5C[C@H](F)C6)nc4c3F)c12` [Example 100, ((1S,5R,6R)-3-(7-(8-ethyl-7-fluoro-3-hydroxynaphthalen-1-yl)-8-fluoro-2-(((2R,7aS)-2-fluorotetrahydro-1H-pyrrolizin-7a(5H)-yl)methoxy)pyrido[4,3-d]pyrimidin-4-yl)-3-azabicyclo[3.2.1]octan-6-yl)(3-methyl-1H-pyrazol-1-yl)methanone], for which the IC50 on KRas G12S was 4720 nM; at KRas G12C it was 4840 nM; on KRas WT it was 7690 nM; in experiment [1], more than 10000 nM; in experiment [2], more than 10000 nM.
In the case of `CCc1c(F)ccc2cc(O)cc(-c3ncc4c(N5CC(C(=O)n6ccc(C)n6)C(C)(C)C5)nc(OC[C@@]56CCCN5C[C@H](F)C6)nc4c3F)c12` (stereo partly drawn) [Example 101, (1-(7-(8-ethyl-7-fluoro-3-hydroxynaphthalen-1-yl)-8-fluoro-2-(((2R,7aS)-2-fluorotetrahydro-1H-pyrrolizin-7a(5H)-yl)methoxy)pyrido[4,3-d]pyrimidin-4-yl)-4,4-dimethylpyrrolidin-3-yl)(3-methyl-1H-pyrazol-1-yl)methanone], the IC50 at KRas G12S is 934 nM; on KRas G12C, 784 nM; on KRas WT it was 716 nM; in experiment [1] it was more than 10000 nM; in experiment [2], 5550 nM.
Taken in the same sequence, the figures for `C=CC1(C(=O)n2ccc(C)n2)CCN(c2nc(OC[C@@]34CCCN3C[C@H](F)C4)nc3c(F)c(-c4cc(O)cc5ccc(F)c(CC)c45)ncc23)CC1` [Example 102, (1-(7-(8-ethyl-7-fluoro-3-hydroxynaphthalen-1-yl)-8-fluoro-2-(((2R,7aS)-2-fluorotetrahydro-1H-pyrrolizin-7a(5H)-yl)methoxy)pyrido[4,3-d]pyrimidin-4-yl)-4-vinylpiperidin-4-yl)(3-methyl-1H-pyrazol-1-yl)methanone] were 2140 nM, 252 nM, 5920 nM, 1930 nM and more than 10000 nM.
Regarding `CCc1c(F)ccc2cc(O)cc(-c3ncc4c(NC[C@@H]5C[C@@H]5C(=O)n5ccc(C)n5)nc(OC[C@@]56CCCN5C[C@H](F)C6)nc4c3F)c12` [Example 103, ((1S,2R)-2-(((7-(8-ethyl-7-fluoro-3-hydroxynaphthalen-1-yl)-8-fluoro-2-(((2R,7aS)-2-fluorotetrahydro-1H-pyrrolizin-7a(5H)-yl)methoxy)pyrido[4,3-d]pyrimidin-4-yl)amino)methyl)cyclopropyl)(3-methyl-1H-pyrazol-1-yl)methanone], the IC50 on KRas G12S was found to be 35 nM; on KRas G12C it was 37 nM; on KRas WT, 34 nM; in experiment [1], 167 nM; in experiment [2] it was 351 nM.
